What was measured:
[1] = test system: HDAC activity; assay: H2O2-induced reduction of HDAC activity in PMA-differentiated U937 cells; format: cell-based, human; settings: for HDAC activity reached compared with untreated controls: H2O2 200 μM, comparators at highest doses tested
Procedure: In cell HDAC assay. Cells are incubated with Fluor de Lys™ substrate for 1 hr before lyses. Total HDAC activity from whole cell extracts is measured using the HDAC Fluorimetric Assay/Drug Discovery Kit (BIOMOL® International, Inc., Plymouth Meeting, Pa.).
HDAC expression: In cell HDAC activity assay: U937 is differentiated to macrophage type cells by PMA for 3 days. HDAC fluorescent substrate (Biomol) is added before exposure of oxidative stress (H2O2, 200 μM) or Tobacco smoke conditioned medium for 4 hrs. HDAC activity is measured (Biomol kit). Compounds at different concentrations are treated 20 min before oxidative stress treatment.
PMA-differentiated macrophage-like cells are pretreated with compounds described herein for 20 min. After H2O2 (200 μM) stimulation for 4 hrs, HDAC activity is assayed. Data are expressed as fold changes against positive control treated with H2O2 only. Values represent means of four experiments±SEM.

[2] = test system: Akt; assay: H2O2-induced phosphorylation of Akt in PMA-differentiated U937 cells (western blot); format: cell-based, human
Procedure: Cell Lysis and Western Blotting. Whole cell protein extracts are prepared using modified RIPA buffer (50 mM Tris HCL pH 7.4, 0.5% NP-40, 0.25% Na-deoxycholate, 150 mM NaCl with freshly added complete protease (Roche). Phosphatase inhibitor (Active Motif) is also added when required. Protein concentration is determined using the Bio-Rad Protein Assay (Bio-Rad). Proteins are separated by SDS-PAGE under denaturing conditions, and electrotransferred to a nitrocellulose membrane (Amersham Biosciences, Amersham, U.K.) (Western blotting). The membranes are blocked in TBS containing 0.05% Tween 20 and 5% non-fat dried milk, and then incubated with anti-pAkt or Akt antibody followed by an horse radish peroxidase-conjugated secondary antibody (Dako UK Ltd., Ely, UK). Bound antibodies are visualized by ECL Plus (GE Healthcare UK Ltd., Little Chalfont, UK). The band density is calculated by densitometry (UVP Bioimaging Systems, Cambridge, UK) using Labworks software (Ultra-Violet Products, Cambridge, UK).
Effects of compounds on H2O2-induced phosphorylation of Akt in PMA-differentiated U937 cells. PMA-differentiated macrophage-like cells are pretreated with compounds described herein for 20 min. After H2O2 (1 mM) stimulation for 30 min, cells are lysed. Phosphorylation levels of Akt are measured by western blot. Data are calculated relative to total protein, and expressed as fold changes against positive control treated with H2O2 only. Values represent means of three or four experiments±SEM.

[3] = test system: IL-8; assay: LPS-induced IL-8 release in PMA-differentiated U937 cells (ELISA); format: cell-based, human; settings: for IC50: LPS-induced IL-8 release, PMA-differentiated U937, NA = inactive
Procedure: (§1) Cytokine ELISA. LPS-induced IL-8, TNFα concentrations and TNFα-induced IL-8 concentrations are determined by sandwich ELISA according to the manufacturer's instructions (R&D Systems Europe). IC50 values for dexamethasone on IL-8 production are calculated using the computer program Prism 4.0 (GraphPad Software Inc., San Diego, Calif.) as a marker for steroid sensitivity.
(§2) Effects of compounds on LPS-induced IL-8 and TNFα release in PMA-differentiated U937 cells. PMA-differentiated macrophage-like cells are pretreated with compounds described herein for 1 hr, followed by LPS (100 ng/ml) stimulation for 4 hrs. LPS-induced IL-8 and TNFα release is evaluated by ELISA. Values represent means of three experiments±SEM.

[4] = test system: TNFα; assay: LPS-induced TNFα release in PMA-differentiated U937 cells (ELISA); format: cell-based, human; settings: for IC50: LPS-induced TNFα release, PMA-differentiated U937, NA = inactive
Procedure: as §1, §2

[5] = test system: MMP9; assay: PMA-induced MMP9 expression in U937 cells (gelatin zymography); format: cell-based, human
Procedure: Zymography. MMP9 enzyme activity is measured by gelatin zymography. 5 μl of supernatants were diluted with 5 μl Laemli sample buffer (Bio-Rad) and are loaded on a Novex® 10% Zymogram (Gelatin) gel (Invitrogen). After electrophoresis (90 min, 125 V, 35 mA, 5 W) gels are incubated with 1× Novex® zymogram renaturing buffer (Invitrogen) for 30 min at room temperature with gentle agitation. Gels are then rinsed in 1× Novex® zymogram developing buffer (Invitrogen) for 30 min at room temperature with gentle agitation prior to overnight incubation in the developing buffer at 37° C. After incubation the gels are stained using the colloidal blue staining kit (Invitrogen) with buffer containing 20% methanol and 70% distilled water to visualize the zymogen bands. Relevant band intensities are quantified by densitometric analysis using the UVP GelDoc-It system.
Effects of compounds on PMA-induced MMP9 expression in U937 cells. U937 cells are pretreated with compounds described herein for 1 hr, followed by PMA (50 ng/ml) treatment for 48 hrs. After 48 hrs supernatants are collected for zymography. MMP9 enzyme activity is measured by gelatin zymography. Data are expressed as fold changes against positive control treated with PMA only. Values represent means of three experiments±SEM.

[6] = test system: U937 cells; assay: H2O2-induced steroid insensitivity in U937 cells (dexamethasone IC50 on TNFα-induced IL-8); format: cell-based, human; settings: highest concentration tested (100 μM); H2O2 200 μM
Procedure: as §1
Restoration of steroid sensitivity. U937 cells: U937 are treated with oxidative stress (H2O2, 200 μM or 0.15 dilution CSM (cigarette smoke conditioned medium)) and 4 hours later, stimulated with TNFα (10 ng/ml) in the presence of dexamethasone (10^−11-10^−6M). Supernatant and cells are collected 24 hrs after stimulation and IL-8 is measured by conventional ELISA. As the index of corticosteroid sensitivity, IC50 of dexamethasone is calculated. Test compounds are treated 20 min before oxidative stress treatment.
Effects of compounds on H2O2-induced steroid insensitivity in U937 cells. Cells stimulated with H2O2 (200 μM) overnight are incubated with compounds described herein for 30 min under H2O2 (200 μM) exposure. The cells are treated with dexamethasone (10^−11 to 10^−6 M) for 20 min, followed by the TNFα stimulation overnight. TNFα-induced IL-8 release is evaluated by ELISA and IC50 values for dexamethasone on IL-8 production are calculated using Prism. Data are expressed as fold changes against positive control treated with H2O2 only. Values represent means of four experiments±SEM. H2O2 exposure reduces dexamethasone sensitivity by approximately 4 fold based on calculated IC50 values of TNFα-induced IL-8 production.

[7] = format: cell-based; settings: human
Procedure: The human monocytic cell line U937 and the human type II alveolar epithelial carcinoma cell line A549 were obtained from the American Type Culture Collection (ATCC, Rockville, Md.). PBMCs from COPD patients were obtained in Brompton hospital and separated by AccuSPIN (Sigma-Aldrich, Poole, UK). Cells were cultured in complete growth medium (Sigma-Aldrich) (RPMI 1640 for U937, PBMCs, and Dulbecco's modified essential medium (DMEM) for A549) supplemented with 10% fetal bovine serum (FBS) and 1% L-glutamine at 37° C. in a humidified atmosphere with 5% CO2. U937 were differentiated into an adherent macrophage-like morphology by exposure to PMA (50 or 100 ng/ml) for 48 hrs in complete growth medium. Cell viability was assessed microscopically by trypan blue staining. Cell toxicity was determined by MTT assay as needed. This study was approved by the ethics committee of the Royal Brompton Hospitals, and all subjects gave written informed consent.

[8] = test system: HDAC2 mRNA; assay: Cigarette smoke extract-induced reduction of HDAC2 mRNA in A549 cells; format: cell-based, human
Procedure: Preparations of cigarette smoke extract. To prepare the cigarette smoke extract, two full-strength Marlboro cigarettes (filters removed; Phillip Morris USA, Richmond, Va.) are combusted through a modified 60-ml syringe apparatus, and the smoke passed through 20 ml of DMEM medium. Each cigarette generally yields five draws of the syringe (to the 60-ml mark), with each individual draw taking approximately 10 s to complete. Cigarette smoke extract is then passed through a 0.20-μm filter to sterilize and remove particulate matter and is used immediately unless otherwise stated.
Quantitative RT-PCR. Total RNA extraction and reverse transcription are performed using an RNeasy kit (QIAGEN, Crawley, UK) and a High-Capacity cDNA Reverse Transcription Kits (Applied Biosystems, Foster City, Calif.). Gene transcript level of HDAC2 (HS00231032_M1, Applied Biosystems, California, USA) and the house-keeping gene, guanine nucleotide binding protein beta polypeptide-2-like 1 (GNB2L1) (HS00272002_M1, Applied Biosystems) are quantified by real-time PCR using a TaqMan® Gene Expression Master Mix (Applied Biosystems) on a Rotor-Gene 6000 (Corbett Research, Cambridge, UK). Transcripts are analysed by the delta (D) CT method and variations in cDNA concentrations between different samples were corrected using GNB2L1.
Effects of macrolides on cigarette smoke extract-induced (CSE-induced) reduction of HDAC2 mRNA in A549 cells. Cells pretreated with compounds described herein for 30 min are exposed to CSE (0.15 O.D.) for 1 hr. The cells are washed twice and incubated with medium only for 4 hrs. Data are expressed as % reduction from baseline (left) or % increase from baseline under H2O2. Values represent means of three experiments±SEM. Example 33 reverses cigarette smoke extract-induced (CSE-induced) reduction of HDAC2 mRNA expression in A549 cells at concentrations of about 10 μM or greater, and with statistical significance of p<0.05 versus treatment with CSE only (one-way ANOVA with post hoc test, n=3) at doses of about 30 μM or greater.

[9] = test concentration not given, bracketed second value not explained

For `CC[C@H]1OC(=O)[C@H](C)[C@@H](O[C@H]2C[C@@](C)(OC)[C@@H](O)[C@H](C)O2)[C@H](C)[C@@H](O[C@@H]2O[C@H](C)C[C@H](N(C)C)[C@H]2O)[C@](C)(OC)C[C@@H](C)C(=O)[C@H](C)[C@@H](O)[C@]1(C)O` [CLR, clarithromycin, reference compound], the “restoration of HDAC activity compared with Example 33” value ([1]; PMA-differentiated U937, H2O2 200 μM 4 hrs) was “only at much higher doses than Example 33”, the “HDAC activity reached compared with untreated controls” value ([1]; PMA-differentiated U937) was “only restore HDAC activity to levels comparable to untreated controls” and the “restoration of H2O2-reduced HDAC activity (%)” value [1, 9] was 14%. For the same compound, the “inhibition of Akt phosphorylation compared with Example 33” value ([2]; PMA-differentiated U937, H2O2 1 mM 30 min) was “only at much higher concentrations than Example 33”, the IC50 ([3]; Homo sapiens, U-937) was 507 ± 44 µM and the “inhibition of LPS-induced IL-8 release compared with Example 33” value ([3]; LPS 100 ng/ml 4 hrs) was “at higher concentrations than Example 33”. The “IL-8 inhibition (%)” value ([3]; test concentration not given) was 17%, the IC50 ([4]; Homo sapiens, U-937) was 426 ± 64 µM and the “inhibition of LPS-induced TNFα release compared with Example 33” value ([4]; LPS 100 ng/ml 4 hrs) was “at higher concentrations than Example 33”. For the same compound, the “TNFα inhibition (%)” value ([4]; test concentration not given) was 21%, the “MMP9 inhibition (%)” value [5, 9] was 8 (22) % and the “restoration of dexamethasone sensitivity” value [6] was “None of ERY, CLR, or AZI restored dexamethasone sensitivity”. The “Cell Toxicity (% cell death)” value [7] was −7%.
In the case of `CCC1OC(=O)C(C)C(OC2CC(C)(OC)C(O)C(C)O2)C(C)C(OC2OC(C)CC(N(C)C)C2O)C(C)(O)CC(C)CN(C(C)=O)C(C)C2OC(=O)OC12C` (centres unmarked) [Example 33], the “HDAC activity reached compared with untreated controls” value ([1]; PMA-differentiated U937) is reported as “higher than untreated controls”, the “concentration at which the H2O2-induced reduction in HDAC activity is restored” value ([1]; PMA-differentiated U937, pretreated 20 min, H2O2 200 μM 4 hrs) is reported as at least 10 µM and the “concentration at which restoration of HDAC activity is statistically significant” value ([1]; p<0.01 versus H2O2 only, n=4) is reported as at least 30 µM. For the same compound, the “concentration at which CSE-induced reduction of HDAC2 mRNA expression is reversed” value ([8]; A549, pretreated 30 min, CSE 0.15 O.D. 1 hr) was at least 10 µM, the “concentration at which reversal of HDAC2 mRNA reduction is statistically significant” value ([8]; p<0.05 versus CSE only, n=3) was at least 30 µM and the “concentration at which inhibition of Akt phosphorylation is statistically significant” value ([2]; p<0.05 versus H2O2 only, n=3 or 4) was at least 100 µM. The IC50 [3] was 95 ± 14 µM, the “concentration at which LPS-induced IL-8 release is inhibited” value ([3]; pretreated 1 hr, LPS 100 ng/ml 4 hrs, p<0.05, n=3) was at least 100 µM and the IC50 [4] was 97 ± 5 µM. The “concentration at which LPS-induced TNFα release is inhibited” value ([4]; pretreated 1 hr, LPS 100 ng/ml 4 hrs, p<0.01, n=3) was at least 100 µM, the IC50 ([5]; PMA-induced MMP9 expression, U937, NA = inactive) was 56 ± 19 µM and the “concentration at which PMA-induced MMP9 up-regulation is inhibited” value ([5]; U937, pretreated 1 hr, PMA 50 ng/ml 48 hrs) was at least 33 µM. For the same compound, the “concentration at which inhibition of MMP9 up-regulation is statistically significant” value ([5]; p<0.05 versus PMA only, n=3) was at least 100 µM.
